Measured values from ChEMBL document CHEMBL1250451, “Mechanistic insights into a Ca2+-dependent family of alpha-mannosidases in a human gut symbiont” (Nat Chem Biol, 2010).
Calls of active or inactive are those of the source. The rule behind the calls is not given here.

Legend:
Type in all cases: protein assay
[1] = target: T1, Alpha-1,2-mannosidase (BT_3530) (Bacteroides thetaiotaomicron) (UniProt Q8A1X8); assay: Activity of Bacteroides thetaiotaomicron GH92 alpha-mannosidase GH92 alpha-mannosidase 3530 assessed as mannose release at 1 mM after 16 hrs by HPLC relative to untreated control after 16 hrs by HPLC
T1 sequence (whole entry): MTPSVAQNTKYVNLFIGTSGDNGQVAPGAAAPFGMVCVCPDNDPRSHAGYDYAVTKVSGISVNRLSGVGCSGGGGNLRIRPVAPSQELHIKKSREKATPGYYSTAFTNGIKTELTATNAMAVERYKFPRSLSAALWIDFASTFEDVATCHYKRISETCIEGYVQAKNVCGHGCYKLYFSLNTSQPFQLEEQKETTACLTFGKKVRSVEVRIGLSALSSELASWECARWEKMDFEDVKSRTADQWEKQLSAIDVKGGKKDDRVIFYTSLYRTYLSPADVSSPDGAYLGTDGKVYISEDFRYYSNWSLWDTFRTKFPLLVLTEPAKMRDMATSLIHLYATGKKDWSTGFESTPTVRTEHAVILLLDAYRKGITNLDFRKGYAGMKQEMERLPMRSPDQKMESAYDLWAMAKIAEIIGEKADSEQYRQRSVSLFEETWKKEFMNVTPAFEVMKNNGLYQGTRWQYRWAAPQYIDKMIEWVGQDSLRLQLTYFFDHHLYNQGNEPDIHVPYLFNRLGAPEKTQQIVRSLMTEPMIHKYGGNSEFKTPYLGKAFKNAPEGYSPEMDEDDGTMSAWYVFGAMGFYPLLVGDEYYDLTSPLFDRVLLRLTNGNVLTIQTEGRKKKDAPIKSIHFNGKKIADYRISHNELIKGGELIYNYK

[2] = target: T2, Alpha-1,2-mannosidase (BT_3784) (Bacteroides thetaiotaomicron) (UniProt Q8A182); assay: Activity of Bacteroides thetaiotaomicron GH92 alpha-mannosidase GH92 alpha-mannosidase 3784 assessed as mannose release at 1 mM after 16 hrs by HPLC relative to untreated control after 16 hrs by HPLC
T2 sequence (whole entry): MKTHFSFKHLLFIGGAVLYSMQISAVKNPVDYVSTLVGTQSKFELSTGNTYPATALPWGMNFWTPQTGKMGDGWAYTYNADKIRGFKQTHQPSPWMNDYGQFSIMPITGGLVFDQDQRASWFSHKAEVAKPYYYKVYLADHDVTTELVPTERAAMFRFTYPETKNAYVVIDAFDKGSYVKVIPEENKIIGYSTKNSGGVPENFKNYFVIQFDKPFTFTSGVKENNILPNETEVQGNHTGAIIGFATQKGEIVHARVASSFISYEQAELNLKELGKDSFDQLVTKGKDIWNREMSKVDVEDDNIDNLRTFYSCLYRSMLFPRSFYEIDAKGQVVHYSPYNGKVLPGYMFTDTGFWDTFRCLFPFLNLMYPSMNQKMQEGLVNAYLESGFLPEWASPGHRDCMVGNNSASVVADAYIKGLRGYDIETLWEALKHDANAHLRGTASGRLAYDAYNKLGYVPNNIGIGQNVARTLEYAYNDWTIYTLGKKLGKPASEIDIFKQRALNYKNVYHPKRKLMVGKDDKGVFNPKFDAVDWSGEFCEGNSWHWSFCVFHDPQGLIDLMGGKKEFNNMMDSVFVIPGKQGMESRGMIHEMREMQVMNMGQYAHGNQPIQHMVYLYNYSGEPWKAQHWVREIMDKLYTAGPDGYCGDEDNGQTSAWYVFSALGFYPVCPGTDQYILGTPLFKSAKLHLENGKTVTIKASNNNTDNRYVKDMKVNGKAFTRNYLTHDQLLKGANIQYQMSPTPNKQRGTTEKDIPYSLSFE

[3] = target: T3, Alpha-1,2-mannosidase (BT_3965) (Bacteroides thetaiotaomicron) (UniProt Q8A0Q6); assay: Activity of Bacteroides thetaiotaomicron GH92 alpha-mannosidase GH92 alpha-mannosidase 3965 assessed as mannose release at 1 mM after 16 hrs by HPLC relative to untreated control after 16 hrs by HPLC
T3 sequence (whole entry): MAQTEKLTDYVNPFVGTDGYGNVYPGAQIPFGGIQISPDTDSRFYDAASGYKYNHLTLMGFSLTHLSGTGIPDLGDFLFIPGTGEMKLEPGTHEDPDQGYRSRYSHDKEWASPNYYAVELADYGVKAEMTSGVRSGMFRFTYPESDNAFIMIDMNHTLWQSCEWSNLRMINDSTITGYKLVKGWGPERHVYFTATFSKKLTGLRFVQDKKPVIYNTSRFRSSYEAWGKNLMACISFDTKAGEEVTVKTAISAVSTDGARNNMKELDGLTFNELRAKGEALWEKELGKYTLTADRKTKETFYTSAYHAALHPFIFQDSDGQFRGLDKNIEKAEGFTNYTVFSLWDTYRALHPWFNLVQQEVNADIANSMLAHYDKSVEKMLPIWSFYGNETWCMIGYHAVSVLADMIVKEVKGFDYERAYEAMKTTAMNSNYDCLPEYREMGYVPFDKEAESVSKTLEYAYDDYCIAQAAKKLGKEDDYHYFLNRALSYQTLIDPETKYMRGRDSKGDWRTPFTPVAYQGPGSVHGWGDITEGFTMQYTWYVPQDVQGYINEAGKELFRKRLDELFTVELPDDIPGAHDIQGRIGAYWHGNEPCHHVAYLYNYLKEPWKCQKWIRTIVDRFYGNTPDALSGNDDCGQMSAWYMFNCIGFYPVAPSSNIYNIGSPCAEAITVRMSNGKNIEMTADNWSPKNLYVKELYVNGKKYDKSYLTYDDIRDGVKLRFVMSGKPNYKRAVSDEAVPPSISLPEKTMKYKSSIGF

Compound | Activity [1] | Activity [2] | Activity [3]
OC[C@H]1O[C@H](O[C@H]2[C@@H](O)[C@H](O)[C@@H](CO)O[C@@H]2O)[C@@H](O)[C@@H](O)[C@@H]1O | inactive | 100% | 0.27%
OC[C@H]1O[C@H](OC[C@H]2O[C@H](O)[C@@H](O)[C@@H](O)[C@@H]2O)[C@@H](O)[C@@H](O)[C@@H]1O | inactive | inactive | 0.64%
OC[C@H]1O[C@H](O[C@@H]2[C@H](O)[C@@H](O)O[C@H](CO)[C@H]2O)[C@@H](O)[C@@H](O)[C@@H]1O | 58% | 5.6% | 0.09%
OC[C@H]1O[C@H](O[C@H]2[C@H](O)[C@H](O)[C@@H](O)O[C@@H]2CO)[C@@H](O)[C@@H](O)[C@@H]1O | 100% | 7.8% | 100%
